# Measured values published in US20240349727A1, “SYNERGY BETWEEN MIXTURES OF ISOTHIOCYANATES AND COMMERCIAL FUNGICIDES” (priority 2021, published 2024).
# Like-named read-outs stand apart in the source and are kept apart here.
# What was measured:
# Format in all cases: cell-based
# [1] = test system: Fusarium verticilloides; assay: In vitro fungitoxic activity, 48-well PDA outgrowth, curative (Example 2); settings: 168 h, fungicide alone, 7 days at room temperature
# Method: (§1) All the experiments were done in the same way. In 48-well plates, each well was filled with a volume of 180 μL of the ITC, the fungicide or a combination of both at various concentrations and filled with 180 μL of Potato Dextrose Agar (PDA). Two or three wells were used per concentration for better accuracy. After solidification of the well a plug of 2×2 mm of grown fungi was placed in each well, and the 48-well plate was sealed with parafilm. After 7 days of incubation at room temperature, the fungal outgrowth was measured and the EC50 was calculated with a 4-parameter logistic regression in XLSTAT.
# (§2) Afterward, a concentration of the fungicides at which the fungi is not growing (i.e. […] the EC50) was determined. Applicants repeated the 48-well experiment by filling the well with a mixture of the ITC and the fungicides; the fungicide concentration was kept constant at the determined concentration mentioned above and the ITC concentration was varied. As before, the fungal outgrowth was measured after 7 days of incubation. To calculate the synergistic properties of the combo ITC+fungicides, the Combination Index (CI) described by Chou (2006) was calculated using the CompuSyn software.
# [2] = test system: Rhizoctonia solani; assay: In vitro fungitoxic activity, 48-well PDA outgrowth, curative; settings: 168 h, fungicide alone, 7 days at 20° C.
# Method: (§3) All the experiments were done in the same way, with small differences between curative and preventive cases. In 48-well plates, each well was filled with a volume of 180 μL of the ITC, the fungicide or a combination of both at various concentrations and filled with 180 μL of Potato Dextrose Agar (PDA). Three wells were used per concentration for better accuracy. After solidification of the well, either a plug of 2×2 mm of grown fungi (curative case) or 20 μL of a spore solution (˜1E5 spores/mL, preventive case) was placed in each well, and the 48-well plate was sealed with parafilm. After 7 days of incubation at 20° C. in a controlled growth chamber, the fungal outgrowth was measured and the EC50 was calculated with a 4-parameter logistic regression in XLSTAT.
# as §2, with “ITO” for “ITC”, “ITO+fungicides,” for “ITC+fungicides,”
# [3] = test system: Rhizoctonia solani; assay: In vitro fungitoxic activity, 48-well PDA outgrowth, preventive (spore solution); settings: 168 h, fungicide alone, 7 days at 20° C.
# Method: as §3
# as §2, with “ITO” for “ITC”, “ITO+fungicides,” for “ITC+fungicides,”
# [4] = test system: Colletotrichum acutatum; assay: In vitro fungitoxic activity, 48-well PDA outgrowth, curative (Example 2); settings: 168 h, fungicide alone, 7 days at room temperature
# Method: as §1, §2
# [5] = test system: Lasiodiplodia pseudotheobromae; assay: as above; settings: 168 h, read-out: EC50 fungicide
# Method: as §1, §2
# [6] = test system: Alternaria radicina; assay: In vitro fungitoxic activity, 48-well PDA outgrowth, curative; settings: 168 h, read-out: EC50 fungicide
# Method: as §3
# as §2, with “ITO” for “ITC”, “ITO+fungicides,” for “ITC+fungicides,”
# [7] = test system: Botrytis cinerea; assay: as above; settings: 168 h, read-out: EC50 fungicide
# Method: as §3
# as §2, with “ITO” for “ITC”, “ITO+fungicides,” for “ITC+fungicides,”
# [8] = test system: Geotrichum candidum; assay: as above; settings: 168 h, read-out: EC50 fungicide
# Method: as §3
# as §2, with “ITO” for “ITC”, “ITO+fungicides,” for “ITC+fungicides,”
# [9] = test system: Penicillium digitatum; assay: as above; settings: 168 h, read-out: EC50 fungicide
# Method: as §3
# as §2, with “ITO” for “ITC”, “ITO+fungicides,” for “ITC+fungicides,”
# [10] = test system: Plectosphaerella cucumerina; assay: In vitro fungitoxic activity, 48-well PDA outgrowth, curative (Example 2); settings: 168 h, read-out: EC50 fungicide
# Method: as §1, §2
# [11] = test system: Geotrichum candidum; assay: In vitro fungitoxic activity, 48-well PDA outgrowth, preventive (spore solution); settings: 168 h, fungicide alone, 7 days at 20° C.
# Method: as §3
# as §2, with “ITO” for “ITC”, “ITO+fungicides,” for “ITC+fungicides,”
# [12] = test system: Penicillium commune; assay: In vitro fungitoxic activity, 48-well PDA outgrowth, curative (Example 2); settings: 168 h, fungicide alone, 7 days at room temperature
# Method: as §1, §2
# [13] = fungicide alone, curative, 7 days at room temperature
# [14] = fungicide alone, curative, 7 days at 20° C.
smiles,measurement,setting,value
O=C1C2CC=CCC2C(=O)N1SC(Cl)(Cl)Cl (stereo not shown) [Captan],EC50,[1],424 µM
N#Cc1c(Cl)c(Cl)c(Cl)c(C#N)c1Cl [Chlorothalonil],EC50,[2],29 µM
same,EC50,[3],2 µM
same,EC50,[4],52 µM
Cc1cc(C2CC2)nc(Nc2ccccc2)n1 [Cyprodinil],EC50,[5]; [13],9 µM
CCCCCCCCCCCCNC(=N)N [Dodine],EC50,[6],110 µM
same,EC50,[7],189 µM
same,EC50,[8],156 µM
same,EC50,[9],92 µM
same,EC50,[5],476 µM
same,EC50,[10],93 µM
N#Cc1c[nH]cc1-c1cccc2c1OC(F)(F)O2 [Fludioxonil],EC50,[5],1 µM
Cc1cc(C)nc(Nc2ccccc2)n1 [Pyrimethanil],EC50,[6]; [14],3 µM
same,EC50,[2],28 µM
CC(C)(C)C(O)(CCc1ccc(Cl)cc1)Cn1cncn1 (stereo not shown) [Tebuconazole],EC50,[6]; [14],30 µM
same,EC50,[8]; [14],27 µM
same,EC50,[9]; [14],1 µM
same,EC50,[2],18 µM
same,EC50,[11],25 µM
same,EC50,[1],6 µM
same,EC50,[5]; [13],300 µM
same,EC50,[12],179 µM
